Measurements reported in patent US20160075667A1, “COMPOSITIONS AND METHODS FOR CHEMICAL EXCHANGE SATURATION TRANSFER (CEST) MAGNETIC RESONANCE IMAGING (MRI)” (The Johns Hopkins University, priority 2013, published 2016).

Assay: Phantom calibration: CEST MTRasym spectra of I45DC-(Glu)2 in PBS
Assay type: physicochemical
Conditions: pH 5.4 to 7.5
Description: I45DC-(Glu)2 was dissolved in PBS with conc. of 50 mM, 25 mM, 12 mM and 6.25 mM and pH from 5.4 to 7.5.
Images were taken on Bruker 11.7T scanners, using a RARE sequence with CW saturation pulse of B1=5.9 uT, Tsat=3 s. For phantoms, saturation frequency incremented every 0.3 ppm from −15 to 15 ppm with TR/TE=6000 ms/17 ms, matrix size=64×48. For in vivo, an axial slice across both kidney carlyx was chosen with thickness of 1.5 mm CEST images with saturation frequencies of [±7.8 ppm, ±7.5 ppm, ±7.2 ppm] and [±4.8 ppm, ±4.5 ppm, ±4.2 ppm] for pH reference were acquired repeatedly every 10 min pre- and post-injection. Image parameters are similar as for phantom except for TR/TE=5 s/15 ms, and CEST contrast was quantified by
MTRasym=(S−Δω−S+Δω)/S−Δω.
CEST MTRasym spectra of I45DC-(Glu)2 (FIG. 5A) show 2 broad peaks centered at 7.5 ppm and 2.4 ppm, with the 7.5 ppm peak increasing as pH increases, while the 2.5 ppm-5 ppm part remains relatively constant. […] The linearity of the ratio using saturation B1=5.9 uT is better than B1=3.6 uT partially due to a relative fast exchange rate of the heterocyclic NH (kex=˜4000).

SMILES: O=C[C@H](CCC(=O)O)NNC(=O)c1nc[nH]c1C(=O)NN[C@H](C=O)CCC(=O)O [I45DC-(Glu)2, 4,5-bis[(Glu)carbonyl]-1H-imidazole]
- ratio of the 7.5 ppm contrast to contrast at 4.8 ppm (6.25-50 mM): dependent on pH
- exchange rate of the heterocyclic NH (kex): ~4000
